According to PMC7881204, “A small-molecular inhibitor against Proteus mirabilis urease to treat catheter-associated urinary tract infections” (Scientific Reports, 2021):

Legend:
urease [1] = target: T1, urease (Canavalia ensiformis, UniProt P07374); test: colorimetric urease assay (phenol red), Dixon plot; IC50 […]; type: biochemical
T1 construct: Type III powder, urease from C. ensiformis (Merck)

urease [2] = target: T1, urease; test: colorimetric urease assay (phenol red), dose-response; type: biochemical

T1 sequence (P07374 whole entry, looked up): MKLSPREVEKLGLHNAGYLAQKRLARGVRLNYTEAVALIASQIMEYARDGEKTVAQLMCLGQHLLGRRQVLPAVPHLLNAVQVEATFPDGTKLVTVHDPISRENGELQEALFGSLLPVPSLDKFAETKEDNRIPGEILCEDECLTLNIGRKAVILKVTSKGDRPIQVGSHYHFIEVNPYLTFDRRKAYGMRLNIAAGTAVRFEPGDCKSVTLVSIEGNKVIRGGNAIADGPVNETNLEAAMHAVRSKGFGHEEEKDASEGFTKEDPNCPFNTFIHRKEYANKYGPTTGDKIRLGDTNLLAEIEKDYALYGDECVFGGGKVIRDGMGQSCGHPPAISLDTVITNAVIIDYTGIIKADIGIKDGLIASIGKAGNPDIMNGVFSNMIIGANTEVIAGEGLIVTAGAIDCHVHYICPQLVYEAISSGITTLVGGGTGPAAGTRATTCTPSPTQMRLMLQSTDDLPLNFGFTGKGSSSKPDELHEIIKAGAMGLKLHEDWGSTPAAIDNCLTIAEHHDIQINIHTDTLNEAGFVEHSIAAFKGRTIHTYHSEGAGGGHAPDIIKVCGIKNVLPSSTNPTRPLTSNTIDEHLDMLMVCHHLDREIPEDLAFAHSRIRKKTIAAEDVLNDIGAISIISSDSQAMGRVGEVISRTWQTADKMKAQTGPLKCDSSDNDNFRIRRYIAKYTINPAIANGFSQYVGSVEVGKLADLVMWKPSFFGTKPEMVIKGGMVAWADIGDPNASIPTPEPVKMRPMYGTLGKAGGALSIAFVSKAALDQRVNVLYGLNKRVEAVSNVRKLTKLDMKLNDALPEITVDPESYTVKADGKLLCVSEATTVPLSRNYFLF

NC(=O)CS [2-MA, 2-mercaptoacetamide]
Ki (urease [1]): 2.95 mM

CC(=O)NO [AHA, acetohydroxamic acid]
IC50 (urease [2]): 4.8 mM
